Measured values: patent publication US7138145B2, “Method and apparatus for ozination of grain” (priority 2001, dated 2006)

Tests used:
insects [1] = conditions: fumigation of the grain; cited from earlier work
[2] = test system: mold, fungus, and some bacteria; conditions: fumigation of the grain; cited from earlier work
[3] = test system: mold, bacteria, and fungus; assay: ozonation of grain stored in an elevator: treatment of mold, bacteria and fungus
Source text: (§1) It is an object of some embodiments of the present invention to provide a method for treating grain for fungus, mold, bacteria, dust, and insects by exposing the grain to a high concentration of ozone for an extended period of time. The present invention utilizes a powerful fan or fans placed at the bottom of the grain storage facility such as, for example, a silo or grain elevator to draw down through the grain a flow of gas containing ozone between 50 and 100 ppm. Ozone generators placed in the head space at the top of the elevator produce ozone in a concentration in excess of 100 ppm. Monitors placed in this head space assure that the ozone concentration remains at these levels. If the ozone generators are not capable of maintaining the concentration at 100 ppm in the head space, then the draw is reduced by slowing the fan speed. A duct takes drawn gases from the bottom of the elevator and re-circulates those gases into the head space to reduce the amount of ozone needed to be generated during a second pass. To assure that the gases come in contact with all of the grain in the elevator, a technique labeled “pulling the core” is utilized wherein a quantity of grain is removed from the bottom of the elevator at its center to remove a column of grain from the core of the column of grain thereby evenly distribute the grain within the elevator. The material which is pulled from the core is then sent back to the top of the column and evenly distributed across the top.
(§2) The following discussion is directed towards grain stored within a vertical elevator 10. […] In one embodiment, a quantity of ozone is injected into a grain bin, vessel, or truck prior to the grain being loaded into said container in order to treat the grain for mold, bacteria, fungi, and biological load as the grain is loaded. […] In this embodiment, the loading bin is partially enclosed and has injected therein a sufficient quantity of ozone to create a concentration of approximately 100 ppm within the loading bin and the enclosed auger. […]

insects [4] = assay: ozonation of grain stored in an elevator: killing of insects
Source text: as §1, §2

[5] = flow of gas containing ozone between 50 and 100 ppm
[6] = ozone concentration maintained for three days
[7] = ozone drawn through grain, over 100 ppm in head space, 50 ppm at bottom of column

Row | SMILES | effect of fumigation on insects (insects [1]) | effect of fumigation on mold, fungus and some bacteria [2] | time within which mold and bacteria begin to die [3, 5] | destruction of mold, bacteria and fungus [3, 6] | time after which smell from mold and fungus disappears [3, 7] [h] | time within which some insects begin to die (insects [4]; [5]) | destruction of insects (insects [4]; [6]) | exposure after which some insects are killed (insects [4]; [7]) [h]
1 | P [phosphine] | effective at killing insects | not been effective |  |  |  |  |  | 
2 | CBr [methyl bromide] | effective at killing insects | not been effective |  |  |  |  |  | 
3 | O=[O+][O-] [ozone] |  |  | twenty-four | almost all insect, mold, bacteria, and fungus will be destroyed | 24 | twenty-four | almost all insect, mold, bacteria, and fungus will be destroyed | 12
